# Reference: ChEMBL document CHEMBL1201862, “PubChem BioAssay data set” (2004)
# Active and inactive are the calls of the source.
# Legend:
# Protein skinhead-1 = target: T1, Protein skinhead-1 (Caenorhabditis elegans, UniProt P34707); assay type: functional
# T1 sequence (P34707 whole entry): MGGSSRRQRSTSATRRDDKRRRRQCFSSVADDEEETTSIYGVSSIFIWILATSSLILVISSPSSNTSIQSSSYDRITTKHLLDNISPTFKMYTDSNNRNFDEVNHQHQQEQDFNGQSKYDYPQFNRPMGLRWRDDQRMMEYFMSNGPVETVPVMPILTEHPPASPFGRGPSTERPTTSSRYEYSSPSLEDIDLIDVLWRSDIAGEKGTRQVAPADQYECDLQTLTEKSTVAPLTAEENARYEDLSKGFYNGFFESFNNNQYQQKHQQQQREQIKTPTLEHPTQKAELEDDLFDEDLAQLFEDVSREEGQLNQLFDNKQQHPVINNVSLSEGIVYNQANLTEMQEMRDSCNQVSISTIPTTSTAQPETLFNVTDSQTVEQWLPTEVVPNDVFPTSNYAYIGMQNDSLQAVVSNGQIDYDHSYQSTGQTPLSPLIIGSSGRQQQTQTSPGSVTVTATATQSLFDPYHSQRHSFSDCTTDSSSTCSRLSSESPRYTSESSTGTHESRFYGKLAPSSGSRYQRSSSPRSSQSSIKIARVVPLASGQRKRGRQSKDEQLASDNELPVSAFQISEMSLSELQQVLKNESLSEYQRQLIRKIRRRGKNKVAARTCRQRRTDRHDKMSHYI
# Fatty acid synthase [1] = target: T2, Fatty acid synthase (Homo sapiens, UniProt P49327); experiment: inhibition of human FAS-TE enzyme activity – biochemical, endpoint fluorescence intensity, uHTS hits, dose response (AID 624327); assay type: functional;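 note: fluorescence from hydrolysis of an O-methyl fluorescein acyl ester substrate by the enzyme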
# Fatty acid synthase [2] = target: T2, Fatty acid synthase; experiment: inhibition of human FAS-TE enzyme activity – biochemical, kinetic fluorescence intensity, dose response (AID 624326); assay type: functional;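 note: rate of fluorescence rise from hydrolysis of a fluorogenic O-methyl fluorescein ester substrate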
# Nonstructural protein 1 = Nonstructural protein 1 (Influenza A virus, UniProt Q194T2); assay type: functional, Influenza A virus (A/California/07/2009(H1N1))
# [3] = luciferase reporter signal suppression in cells – H4 neuroglioma cells, luminescence, dose response (AID 1990); assay type: functional, cell-based
# [4] = Luminescence Cell-Based Dose Response HTS to Identify Inhibitors of 5'UTR Stem-Loop Driven Prion Protein mRNA Translation in H4 Neuroglioblastoma Cells. [Related pubchem assays: 1827 (Project Summary), 1813 (Primary HTS)]; assay type: functional
# [5] = alpha-synuclein stem-loop luciferase translation blockers – H4 neuroglioma cells, luminescence, confirmation (AID 1988); assay type: functional, cell-based
# Vero = experiment: cells; assay type: functional; conditions: Chlorocebus sabaeus
# [6] = microbe, parasite or virus in culture; assay type: functional; conditions: Mycobacterium tuberculosis
# [7] = reduction of Shn3 3'UTR-driven luciferase in osteoblasts – cell-based, Clone20 osteoblasts, firefly luciferase, cherry-picked, dose response (AID 624132); assay type: functional;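 note: firefly luciferase luminescence from reporter carrying the Shn3 3'UTR in osteoblasts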
# [8] = loss of viability in HepG2 cells – cell-based, CellTiter-Glo, cherry-picked, cytotoxicity control for Shn3 inhibitor project, dose response (AID 624134); assay type: functional
# [9] = non-specific 3'UTR reporter inhibition in Clone20-Shn3RL – cell-based, Renilla luciferase, cherry-picked, counter-screen for Shn3 inhibitor project, dose response (AID 624133); assay type: functional
# [10] = viability of uninfected HEp-2 cells – cell-based, HTS, cytotoxicity control for RSV inhibitor project, dose response (AID 2410); assay type: functional; conditions: human respiratory syncytial virus
# Cytochrome P450 2C19 = Cytochrome P450 2C19 (Homo sapiens, UniProt P33261); experiment: Cytochrome panel assay with activity outcomes. Panel member name: p450-cyp2c19 Compounds with AC50 equal or less than 10 uM are considered active; assay type: functional; conditions: read-out: AC50
# [11] = blockers of HIV-1 envelope-mediated cell-cell fusion – cherry-pick, dose response (AID 652057); assay type: functional, cell-based
# [12] = blockers of HIV-1 ZM109 envelope-driven cell-cell fusion – HeLa effector, CEM target cells, luciferase, cherry-pick, dose response (AID 652058); assay type: functional, cell-based;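 note: luciferase signal from HIV-1 Env mediated cell-cell fusion of effector and target cells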
# [13] = HIV-1 AD8 envelope cell-cell fusion blockers – cherry-pick, dose response (AID 652062); assay type: functional, cell-based;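 note: luciferase signal from cell-cell fusion driven by HIV-1 clade B AD8 Env; potency is for inhibitors of fusion seen as a drop in luminescence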
# [14] = viability of PTEN-deleted HCT116 cells – cell-based, HCT116 PTEN knockout, dose response (AID 1047); assay type: functional;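 note: HCT116 colon tumor cells with PTEN knocked out; cells exposed to compound for 60 hours before readout; potency for loss of cell viability measured by luminescence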
# [15] = viability of HCT116 lacking mutant beta-catenin – cell-based, human colon tumor, dose response (AID 1045); assay type: functional;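 note: HCT116 colon tumor cells with beta catenin knocked out; cells exposed to compound for 60 hours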
# [16] = target: T3, Replicative DNA helicase DnaB (Mycobacterium tuberculosis, UniProt P9WMR3); experiment: DnaB intein splicing inhibitors, dose response, biochemical, cell-free fluorescence (AID 449749); assay type: functional
# T3 sequence (P9WMR3 whole entry): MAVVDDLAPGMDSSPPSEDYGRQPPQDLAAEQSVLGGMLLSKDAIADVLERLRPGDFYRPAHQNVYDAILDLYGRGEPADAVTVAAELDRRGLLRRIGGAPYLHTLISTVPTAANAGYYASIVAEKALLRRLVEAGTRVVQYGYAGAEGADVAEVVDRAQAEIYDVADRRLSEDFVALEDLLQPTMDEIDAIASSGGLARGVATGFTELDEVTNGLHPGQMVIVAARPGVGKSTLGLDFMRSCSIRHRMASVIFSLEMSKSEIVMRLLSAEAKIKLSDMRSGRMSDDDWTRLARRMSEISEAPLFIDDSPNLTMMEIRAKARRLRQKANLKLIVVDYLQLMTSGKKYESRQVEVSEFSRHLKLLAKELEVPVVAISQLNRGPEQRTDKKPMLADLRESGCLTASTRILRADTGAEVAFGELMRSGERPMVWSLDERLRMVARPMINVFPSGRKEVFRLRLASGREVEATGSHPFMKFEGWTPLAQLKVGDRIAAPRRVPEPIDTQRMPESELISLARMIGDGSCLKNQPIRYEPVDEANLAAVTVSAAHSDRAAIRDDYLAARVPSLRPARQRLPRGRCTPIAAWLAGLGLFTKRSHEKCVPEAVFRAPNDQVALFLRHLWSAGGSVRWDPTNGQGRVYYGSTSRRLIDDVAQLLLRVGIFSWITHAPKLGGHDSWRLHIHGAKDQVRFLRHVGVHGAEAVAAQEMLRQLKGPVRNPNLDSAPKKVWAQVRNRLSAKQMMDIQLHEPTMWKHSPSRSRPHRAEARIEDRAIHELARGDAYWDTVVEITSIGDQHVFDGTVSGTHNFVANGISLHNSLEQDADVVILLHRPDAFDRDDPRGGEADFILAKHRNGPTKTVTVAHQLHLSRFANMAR
# Protein RecA = target: T4, Protein RecA (Mycobacterium tuberculosis, UniProt P9WHJ3); experiment: Fluorescence Cell-Free Homogeneous Dose Retest to Identify Inhibitors of RecA-Intein Splicing Activity. [Related pubchem assays (depositor defined):AID2097, AID2223, AID489010, AID492950]; assay type: functional
# T4 sequence (P9WHJ3 whole entry): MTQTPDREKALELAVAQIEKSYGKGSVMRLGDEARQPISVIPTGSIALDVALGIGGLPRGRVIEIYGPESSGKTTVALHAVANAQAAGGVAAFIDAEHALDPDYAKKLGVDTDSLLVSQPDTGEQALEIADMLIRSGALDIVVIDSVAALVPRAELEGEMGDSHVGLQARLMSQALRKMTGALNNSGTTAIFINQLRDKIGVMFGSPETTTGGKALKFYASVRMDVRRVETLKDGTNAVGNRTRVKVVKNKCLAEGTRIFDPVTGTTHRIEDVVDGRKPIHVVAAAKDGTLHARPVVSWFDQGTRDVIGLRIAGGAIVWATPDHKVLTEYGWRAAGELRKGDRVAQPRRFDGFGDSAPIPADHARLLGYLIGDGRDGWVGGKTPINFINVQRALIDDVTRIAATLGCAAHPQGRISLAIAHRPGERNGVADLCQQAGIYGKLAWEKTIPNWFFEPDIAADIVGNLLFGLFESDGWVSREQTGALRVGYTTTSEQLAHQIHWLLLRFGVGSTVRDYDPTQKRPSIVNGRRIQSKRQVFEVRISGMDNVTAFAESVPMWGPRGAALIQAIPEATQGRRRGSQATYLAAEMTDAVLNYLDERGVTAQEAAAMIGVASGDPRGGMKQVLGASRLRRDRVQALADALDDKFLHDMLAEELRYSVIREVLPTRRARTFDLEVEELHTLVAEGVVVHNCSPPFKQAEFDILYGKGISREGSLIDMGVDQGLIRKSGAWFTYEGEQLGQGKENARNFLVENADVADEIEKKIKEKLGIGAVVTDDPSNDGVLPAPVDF
# T2 sequence (P49327 whole entry): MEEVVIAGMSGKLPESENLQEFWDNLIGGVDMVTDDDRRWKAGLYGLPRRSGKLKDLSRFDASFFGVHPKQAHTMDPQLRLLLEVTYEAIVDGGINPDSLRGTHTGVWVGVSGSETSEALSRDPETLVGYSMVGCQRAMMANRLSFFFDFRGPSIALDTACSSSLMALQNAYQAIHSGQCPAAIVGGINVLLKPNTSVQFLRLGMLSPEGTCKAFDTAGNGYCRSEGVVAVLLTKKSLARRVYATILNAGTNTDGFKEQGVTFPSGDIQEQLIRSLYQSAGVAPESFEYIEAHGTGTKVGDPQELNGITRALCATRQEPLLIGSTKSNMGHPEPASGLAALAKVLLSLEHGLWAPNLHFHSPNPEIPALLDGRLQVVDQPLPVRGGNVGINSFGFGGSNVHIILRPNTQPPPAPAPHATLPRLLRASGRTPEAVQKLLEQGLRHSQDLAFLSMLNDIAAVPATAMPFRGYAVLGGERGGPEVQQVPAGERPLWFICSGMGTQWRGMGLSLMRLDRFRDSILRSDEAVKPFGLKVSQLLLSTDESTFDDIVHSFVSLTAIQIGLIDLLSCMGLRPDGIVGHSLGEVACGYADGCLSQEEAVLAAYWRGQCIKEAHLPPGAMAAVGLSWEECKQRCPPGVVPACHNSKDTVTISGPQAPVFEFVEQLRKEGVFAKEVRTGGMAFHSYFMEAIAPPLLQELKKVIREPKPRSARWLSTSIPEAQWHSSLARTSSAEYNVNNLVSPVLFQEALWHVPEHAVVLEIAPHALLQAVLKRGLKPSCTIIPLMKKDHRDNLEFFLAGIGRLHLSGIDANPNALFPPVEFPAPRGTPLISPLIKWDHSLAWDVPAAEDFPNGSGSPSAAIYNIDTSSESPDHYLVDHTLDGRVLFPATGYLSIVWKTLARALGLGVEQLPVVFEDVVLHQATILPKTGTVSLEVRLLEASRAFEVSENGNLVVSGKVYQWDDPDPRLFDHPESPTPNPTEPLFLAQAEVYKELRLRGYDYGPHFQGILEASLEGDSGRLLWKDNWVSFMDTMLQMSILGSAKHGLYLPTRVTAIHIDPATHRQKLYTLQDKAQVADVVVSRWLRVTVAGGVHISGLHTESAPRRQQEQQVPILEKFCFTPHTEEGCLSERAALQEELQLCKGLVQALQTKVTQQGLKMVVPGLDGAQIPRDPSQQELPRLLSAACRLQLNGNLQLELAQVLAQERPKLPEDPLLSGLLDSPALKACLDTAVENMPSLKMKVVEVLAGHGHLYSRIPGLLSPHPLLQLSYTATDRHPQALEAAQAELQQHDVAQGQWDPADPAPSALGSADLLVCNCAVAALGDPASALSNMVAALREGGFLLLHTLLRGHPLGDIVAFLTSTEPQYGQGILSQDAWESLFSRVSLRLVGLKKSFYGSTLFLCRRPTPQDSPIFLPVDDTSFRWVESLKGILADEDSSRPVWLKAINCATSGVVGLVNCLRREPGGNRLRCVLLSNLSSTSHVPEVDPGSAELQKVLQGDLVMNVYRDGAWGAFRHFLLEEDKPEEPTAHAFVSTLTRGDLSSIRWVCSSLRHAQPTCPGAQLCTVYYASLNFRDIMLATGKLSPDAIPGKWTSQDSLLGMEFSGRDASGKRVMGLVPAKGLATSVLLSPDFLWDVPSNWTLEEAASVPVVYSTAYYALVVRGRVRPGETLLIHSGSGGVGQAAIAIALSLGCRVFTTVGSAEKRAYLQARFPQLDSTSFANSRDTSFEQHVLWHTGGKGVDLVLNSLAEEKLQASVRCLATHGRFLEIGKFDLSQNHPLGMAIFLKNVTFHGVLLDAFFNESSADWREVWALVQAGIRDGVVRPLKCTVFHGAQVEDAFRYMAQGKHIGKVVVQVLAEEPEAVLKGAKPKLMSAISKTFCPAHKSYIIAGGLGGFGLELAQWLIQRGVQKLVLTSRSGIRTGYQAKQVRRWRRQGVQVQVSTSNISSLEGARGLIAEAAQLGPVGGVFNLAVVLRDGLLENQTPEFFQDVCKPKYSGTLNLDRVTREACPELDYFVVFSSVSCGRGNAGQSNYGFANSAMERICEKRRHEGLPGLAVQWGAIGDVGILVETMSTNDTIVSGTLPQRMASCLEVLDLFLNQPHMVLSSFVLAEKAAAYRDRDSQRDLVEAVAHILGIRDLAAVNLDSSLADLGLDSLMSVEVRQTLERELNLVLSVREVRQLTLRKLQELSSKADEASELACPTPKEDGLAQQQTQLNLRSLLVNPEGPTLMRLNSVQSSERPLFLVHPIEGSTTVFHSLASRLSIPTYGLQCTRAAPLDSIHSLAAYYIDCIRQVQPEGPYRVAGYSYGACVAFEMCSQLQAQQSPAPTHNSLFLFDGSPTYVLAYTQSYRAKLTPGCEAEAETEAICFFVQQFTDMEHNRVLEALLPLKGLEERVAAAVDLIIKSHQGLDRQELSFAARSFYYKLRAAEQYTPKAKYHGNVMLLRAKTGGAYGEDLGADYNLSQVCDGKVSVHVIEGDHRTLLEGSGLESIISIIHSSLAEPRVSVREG
# Chain of Nonstructural protein 1 (Q194T2 whole entry): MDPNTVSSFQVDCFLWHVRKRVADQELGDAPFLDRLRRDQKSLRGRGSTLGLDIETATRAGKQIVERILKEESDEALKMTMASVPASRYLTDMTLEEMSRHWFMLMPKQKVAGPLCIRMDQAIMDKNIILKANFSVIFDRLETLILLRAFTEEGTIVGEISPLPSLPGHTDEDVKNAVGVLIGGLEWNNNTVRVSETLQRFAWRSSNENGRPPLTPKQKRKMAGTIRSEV
# Chain of Cytochrome P450 2C19 (P33261 whole entry, the tested form may be a part): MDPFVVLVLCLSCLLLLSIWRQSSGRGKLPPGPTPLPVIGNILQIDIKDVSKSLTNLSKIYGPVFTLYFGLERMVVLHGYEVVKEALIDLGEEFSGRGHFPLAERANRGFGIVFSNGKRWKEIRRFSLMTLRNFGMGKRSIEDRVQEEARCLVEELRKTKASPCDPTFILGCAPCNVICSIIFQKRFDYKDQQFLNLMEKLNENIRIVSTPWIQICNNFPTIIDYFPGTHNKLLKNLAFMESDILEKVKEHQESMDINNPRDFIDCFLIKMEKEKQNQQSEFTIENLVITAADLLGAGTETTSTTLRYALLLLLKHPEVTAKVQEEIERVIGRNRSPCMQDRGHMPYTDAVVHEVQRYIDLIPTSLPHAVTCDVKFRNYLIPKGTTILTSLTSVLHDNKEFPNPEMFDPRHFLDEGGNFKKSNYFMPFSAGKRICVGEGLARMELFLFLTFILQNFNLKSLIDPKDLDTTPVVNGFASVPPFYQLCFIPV
smiles,measurement,setting,value
Clc1ccc(-c2cn3c(n2)-c2ccccc2C3)cc1Cl,IC50,Protein skinhead-1,> 100 µM (inactive)
Cc1ccc(-c2csc(-c3ccncc3)n2)cc1,IC50,Protein skinhead-1,65.2 µM (inactive)
O=C(NC1CC1)c1cc(-c2ccc(Br)cc2)nc2ccccc12,IC50,Protein skinhead-1,> 100 µM (inactive)
O=C1CC(c2cccc([N+](=O)[O-])c2)c2c(ccc3ccccc23)N1 (stereo not drawn),IC50,Fatty acid synthase [1],52.2 µM (inactive)
same,IC50,Fatty acid synthase [2],56.4 µM (inactive)
Cc1cc(C)c2cc(C#N)c(N3CCCC3)nc2c1,IC50,Protein skinhead-1,> 100 µM (inactive)
CCN(Cc1ccccc1)c1ccc(N=Nc2nn(C)c(C)c2[N+](=O)[O-])cc1,IC50,Nonstructural protein 1,9.29 µM (active)
same,IC50,Fatty acid synthase [1],13.9 µM (active)
same,IC50,Fatty acid synthase [2],7.95 µM (active)
N#Cc1cc(C(=O)c2ccccc2OCC(=O)Nc2ccccc2Cl)cn(C2CCCCC2)c1=O,EC50,[3],22 µM (active)
same,EC50,[4],> 120 µM (not active)
same,EC50,[5],> 120 µM (not active)
COc1ccccc1N1CCN(CC(O)c2c(C)[nH]c3ccccc23)CC1 (stereo not drawn),CC50,Vero,> 25 µM (active)
Cc1c(NC(=O)CCC2CCCCC2)cc(C(=O)N2CCOCC2)cc1[N+](=O)[O-],EC50,[3],> 120 µM (not active)
same,EC50,[4],> 120 µM (not active)
same,EC50,[5],> 120 µM (not active)
COC(=O)c1c(NC(=O)CCl)sc(C(=O)N2CCOCC2)c1C,CC50,[6],16.4 µM (active)
Cc1ccc(C)c(S(=O)(=O)N2CCN(C(=O)C3CCN(c4ncnc5sc(C)c(C)c45)CC3)CC2)c1,AC50,[7],2.82 µM (active)
same,AC50,[8],> 70 µM (inactive)
same,AC50,[9],2.29 µM (active)
Cc1cc2c(=O)oc(-c3ccccc3Br)nc2s1,IC50,Fatty acid synthase [1],7.57 µM (active)
same,IC50,Fatty acid synthase [2],8.01 µM (active)
CCN(CC)S(=O)(=O)c1ccc(C2=NOC3(C2)N(C)c2ccccc2C3(C)C)cc1 (stereo not drawn),CC50,[10],> 50 µM (active)
same,EC50,[3],> 120 µM (not active)
same,EC50,[4],29 µM (active)
same,EC50,[5],0.516 µM (active)
C=CCn1c(SCc2cc(=O)n3ccsc3n2)nc2sc(C)c(C)c2c1=O,EC50,[3],15.3 µM (active)
same,EC50,[4],> 120 µM (not active)
same,EC50,[5],> 120 µM (not active)
CC(=O)Nc1sc(/C(C#N)=C\c2cccc(Cl)c2)nc1-c1ccc(C)cc1,IC50,Protein skinhead-1,> 100 µM (inactive)
Clc1ccc2oc(-c3cccnc3)nc2c1,AC50,Cytochrome P450 2C19,14.1 µM (inconclusive)
same,IC50,Protein skinhead-1,29 µM (active)
COc1cccc(-n2c(CN3CCN(c4ccccn4)CC3)nc3ccc([N+](=O)[O-])cc3c2=O)c1,IC50,Fatty acid synthase [1],3.23 µM (active)
same,IC50,Fatty acid synthase [2],3.67 µM (active)
O=[N+]([O-])c1ccc(C2CC(c3ccccc3)=Nc3ccccc3S2)cc1 (stereo not drawn),CC50,[6],37.4 µM (active)
O=C(Nc1ccc(C2CC2(Cl)Cl)cc1)c1ccccc1Br (stereo not drawn),IC50,Protein skinhead-1,70 µM (inactive)
CC(C)C[C@H]1CN([C@@H](CC(C)C)CN2CCCC2CN2C(=S)NC[C@@H]2Cc2ccc(O)cc2)C(=S)N1CC1CCCCCC1 (stereo partly drawn),CC50,Vero,20.9 µM (active)
Cc1ccc(OCCNC(=O)CNC(=O)c2ccc(Cl)c([N+](=O)[O-])c2)cc1,IC50,Fatty acid synthase [1],8.99 µM (active)
same,IC50,Fatty acid synthase [2],9.71 µM (active)
O=C(CN1CCCC1c1cccs1)Nc1cc(S(=O)(=O)N2CCCCC2)ccc1Cl (stereo not drawn),AC50,[7],14.4 µM (active)
same,AC50,[8],60.5 µM (active)
same,AC50,[9],6.82 µM (active)
Cn1nc(C(C)(C)C)cc1C(=O)N1CCCCC1c1cc(C(=O)Nc2cccc3c2CCCC3)no1 (stereo not drawn),AC50,[7],10.2 µM (active)
same,AC50,[8],62.8 µM (active)
same,AC50,[9],16.5 µM (active)
COC(=O)C1=C(c2ccc(OCc3ccccc3)cc2)C[C@@H]2CC[C@H]1N2C(=O)NCc1ccc(C(C)(C)C)cc1,AC50,[7],6.84 µM (active)
same,AC50,[8],> 70 µM (inactive)
same,AC50,[9],1.63 µM (active)
O=C(Nc1cccc(C(=O)O)c1)/C(=C\c1cccc([N+](=O)[O-])c1)NC(=O)c1ccc(Br)cc1,IC50,Fatty acid synthase [1],4.62 µM (active)
same,IC50,Fatty acid synthase [2],5.19 µM (active)
O=C(C[C@H]1C=C[C@@H](NC(=O)Nc2ccccc2F)[C@@H](CO)O1)NCc1ccc(-c2ccccc2)cc1,AC50,[11],< 0.26 µM (active)
same,AC50,[12],< 0.26 µM (active)
same,AC50,[13],< 0.26 µM (active)
Cc1ccc(S(=O)(=O)Nc2ccc3c(c2)CC(=O)N([C@@H](C)CO)C[C@H](C)[C@H](CN(C)S(=O)(=O)c2ccccc2)O3)cc1,AC50,[11],14.7 µM (active)
same,AC50,[12],15.5 µM (active)
same,AC50,[13],34.2 µM (active)
C[C@H](CO)N1C[C@H](C)[C@H](CN(C)S(=O)(=O)c2ccccc2)Oc2ccc(NC(=O)Cn3cnnn3)cc2CC1=O,AC50,[11],13.5 µM (active)
same,AC50,[12],2.07 µM (active)
same,AC50,[13],20.3 µM (active)
Clc1ccc(Sc2oc(/C=N/n3cnnc3)cc2Br)cc1,EC50,[14],15.2 µM (active)
same,EC50,[15],43.8 µM (active)
same,AC50,[16],2 µM (active)
same,EC50,Protein RecA,8.65 µM (active)
